Results taken from publication doi:10.1101/471615v1 (biorxiv, 2018).

Experiments:
Assay in all cases: biochemical
ABL1-non-Phos. = ABL1-non-Phos. (Homo sapiens, UniProt P00519)
ABL1-Phos. = ABL1-Phos. (Homo sapiens, UniProt P00519)
MEK5 = biological target: T1, MEK5 (Homo sapiens, UniProt Q13163)
T1 sequence (Q13163 1-448): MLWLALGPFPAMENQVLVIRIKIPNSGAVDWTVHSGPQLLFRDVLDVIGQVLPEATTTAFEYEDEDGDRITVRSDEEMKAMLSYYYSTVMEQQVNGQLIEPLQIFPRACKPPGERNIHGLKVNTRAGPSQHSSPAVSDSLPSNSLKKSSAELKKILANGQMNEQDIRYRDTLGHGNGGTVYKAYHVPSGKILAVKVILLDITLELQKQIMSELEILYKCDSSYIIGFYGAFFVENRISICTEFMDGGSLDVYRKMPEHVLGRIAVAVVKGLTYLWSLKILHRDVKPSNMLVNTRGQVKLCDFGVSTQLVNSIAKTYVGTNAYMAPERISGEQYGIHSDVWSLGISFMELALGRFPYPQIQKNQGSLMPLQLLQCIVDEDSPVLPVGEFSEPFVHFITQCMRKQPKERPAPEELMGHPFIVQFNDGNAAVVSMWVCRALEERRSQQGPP

ACVR1 = biological target: T2, ACVR1 (Homo sapiens, UniProt Q04771)
T2 sequence (Q04771 1-509): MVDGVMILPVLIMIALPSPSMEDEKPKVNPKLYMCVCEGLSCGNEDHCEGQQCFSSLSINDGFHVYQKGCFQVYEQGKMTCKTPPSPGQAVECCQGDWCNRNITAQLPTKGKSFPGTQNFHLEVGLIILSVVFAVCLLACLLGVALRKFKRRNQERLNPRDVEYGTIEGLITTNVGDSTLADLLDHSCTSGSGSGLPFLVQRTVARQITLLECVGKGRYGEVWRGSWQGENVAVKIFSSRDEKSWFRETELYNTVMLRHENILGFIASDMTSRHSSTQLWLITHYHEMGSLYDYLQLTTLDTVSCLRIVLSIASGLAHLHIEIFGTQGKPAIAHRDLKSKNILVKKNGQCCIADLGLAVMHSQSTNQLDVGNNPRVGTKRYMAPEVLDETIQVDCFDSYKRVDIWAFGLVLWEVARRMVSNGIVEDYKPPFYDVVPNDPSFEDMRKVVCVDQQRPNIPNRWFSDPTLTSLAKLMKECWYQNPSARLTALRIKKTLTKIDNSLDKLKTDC

EphA1 = biological target: T3, EphA1 (Homo sapiens, UniProt P21709)
T3 sequence (P21709 1-976): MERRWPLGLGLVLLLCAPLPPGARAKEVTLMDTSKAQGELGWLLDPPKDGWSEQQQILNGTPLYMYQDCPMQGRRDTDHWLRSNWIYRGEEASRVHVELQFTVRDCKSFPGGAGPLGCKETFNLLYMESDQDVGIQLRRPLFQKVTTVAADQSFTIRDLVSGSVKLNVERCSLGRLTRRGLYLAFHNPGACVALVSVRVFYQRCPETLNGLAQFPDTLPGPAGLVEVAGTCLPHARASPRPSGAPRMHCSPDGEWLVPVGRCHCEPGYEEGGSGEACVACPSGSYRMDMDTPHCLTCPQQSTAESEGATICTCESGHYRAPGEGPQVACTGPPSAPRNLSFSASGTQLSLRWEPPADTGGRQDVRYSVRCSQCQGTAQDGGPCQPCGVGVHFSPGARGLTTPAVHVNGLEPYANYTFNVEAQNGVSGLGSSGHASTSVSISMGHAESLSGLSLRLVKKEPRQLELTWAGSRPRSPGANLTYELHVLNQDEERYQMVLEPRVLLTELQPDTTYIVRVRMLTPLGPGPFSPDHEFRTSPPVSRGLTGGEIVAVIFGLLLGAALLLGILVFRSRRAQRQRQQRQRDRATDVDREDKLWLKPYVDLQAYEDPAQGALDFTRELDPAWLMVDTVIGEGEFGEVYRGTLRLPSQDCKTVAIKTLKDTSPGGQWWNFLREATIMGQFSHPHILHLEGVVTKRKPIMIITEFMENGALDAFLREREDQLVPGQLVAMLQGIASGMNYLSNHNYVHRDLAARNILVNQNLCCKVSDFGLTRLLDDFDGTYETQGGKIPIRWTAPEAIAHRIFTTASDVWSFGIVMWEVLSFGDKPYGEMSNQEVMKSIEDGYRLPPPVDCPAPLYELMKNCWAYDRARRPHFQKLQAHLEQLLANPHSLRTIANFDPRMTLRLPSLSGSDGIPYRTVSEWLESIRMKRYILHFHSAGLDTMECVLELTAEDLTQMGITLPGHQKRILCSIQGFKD

[1] = biological target: receptor-interacting protein kinase 2, RIPK2 (Homo sapiens, UniProt O43353)
Sequence of receptor-interacting protein kinase 2, RIPK2 (O43353 whole entry): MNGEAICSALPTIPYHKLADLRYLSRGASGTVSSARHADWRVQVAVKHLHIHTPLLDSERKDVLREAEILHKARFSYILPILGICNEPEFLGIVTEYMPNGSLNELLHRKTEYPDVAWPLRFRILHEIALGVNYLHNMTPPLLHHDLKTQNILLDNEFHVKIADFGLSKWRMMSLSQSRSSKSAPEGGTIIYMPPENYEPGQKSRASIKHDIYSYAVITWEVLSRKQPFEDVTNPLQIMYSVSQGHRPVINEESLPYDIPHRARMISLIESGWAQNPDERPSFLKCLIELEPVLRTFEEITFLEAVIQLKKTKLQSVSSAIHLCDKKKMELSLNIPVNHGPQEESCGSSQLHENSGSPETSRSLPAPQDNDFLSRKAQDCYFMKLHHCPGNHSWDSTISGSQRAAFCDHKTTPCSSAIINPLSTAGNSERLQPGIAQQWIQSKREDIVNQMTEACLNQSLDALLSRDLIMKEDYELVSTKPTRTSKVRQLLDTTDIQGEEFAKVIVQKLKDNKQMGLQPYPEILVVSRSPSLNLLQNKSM

TXK = biological target: T4, TXK (Homo sapiens, UniProt P42681)
T4 sequence (P42681 1-527): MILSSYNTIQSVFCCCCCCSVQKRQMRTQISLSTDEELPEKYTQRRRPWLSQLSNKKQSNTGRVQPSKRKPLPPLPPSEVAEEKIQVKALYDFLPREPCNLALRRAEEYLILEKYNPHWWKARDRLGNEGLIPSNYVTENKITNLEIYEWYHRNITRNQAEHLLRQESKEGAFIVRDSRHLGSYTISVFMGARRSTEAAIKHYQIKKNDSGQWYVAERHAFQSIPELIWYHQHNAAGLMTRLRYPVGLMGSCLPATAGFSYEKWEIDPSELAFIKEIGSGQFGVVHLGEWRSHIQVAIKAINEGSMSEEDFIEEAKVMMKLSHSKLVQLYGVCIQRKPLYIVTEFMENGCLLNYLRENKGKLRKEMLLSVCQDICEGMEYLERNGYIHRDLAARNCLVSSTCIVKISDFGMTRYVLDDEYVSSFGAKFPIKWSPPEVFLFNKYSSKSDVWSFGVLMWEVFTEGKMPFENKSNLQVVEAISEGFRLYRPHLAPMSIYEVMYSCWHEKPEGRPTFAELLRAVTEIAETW

LCK = LCK (Homo sapiens, UniProt P06239)
Sequence of LCK (P06239 whole entry): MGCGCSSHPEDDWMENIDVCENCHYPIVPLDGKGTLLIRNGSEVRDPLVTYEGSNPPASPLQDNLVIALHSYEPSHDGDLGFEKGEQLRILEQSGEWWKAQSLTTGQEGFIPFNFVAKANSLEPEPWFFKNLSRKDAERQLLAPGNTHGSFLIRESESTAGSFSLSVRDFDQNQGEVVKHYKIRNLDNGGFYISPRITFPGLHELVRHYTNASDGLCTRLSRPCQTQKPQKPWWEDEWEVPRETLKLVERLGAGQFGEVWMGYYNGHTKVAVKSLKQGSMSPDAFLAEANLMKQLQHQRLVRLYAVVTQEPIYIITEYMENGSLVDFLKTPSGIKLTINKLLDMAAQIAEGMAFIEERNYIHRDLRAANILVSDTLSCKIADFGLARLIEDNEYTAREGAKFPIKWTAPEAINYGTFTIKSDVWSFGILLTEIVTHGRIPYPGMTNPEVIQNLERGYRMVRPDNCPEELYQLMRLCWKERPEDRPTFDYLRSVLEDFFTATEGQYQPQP

Measured: Kd

Sequence of ABL1-Phos. (P00519 whole entry): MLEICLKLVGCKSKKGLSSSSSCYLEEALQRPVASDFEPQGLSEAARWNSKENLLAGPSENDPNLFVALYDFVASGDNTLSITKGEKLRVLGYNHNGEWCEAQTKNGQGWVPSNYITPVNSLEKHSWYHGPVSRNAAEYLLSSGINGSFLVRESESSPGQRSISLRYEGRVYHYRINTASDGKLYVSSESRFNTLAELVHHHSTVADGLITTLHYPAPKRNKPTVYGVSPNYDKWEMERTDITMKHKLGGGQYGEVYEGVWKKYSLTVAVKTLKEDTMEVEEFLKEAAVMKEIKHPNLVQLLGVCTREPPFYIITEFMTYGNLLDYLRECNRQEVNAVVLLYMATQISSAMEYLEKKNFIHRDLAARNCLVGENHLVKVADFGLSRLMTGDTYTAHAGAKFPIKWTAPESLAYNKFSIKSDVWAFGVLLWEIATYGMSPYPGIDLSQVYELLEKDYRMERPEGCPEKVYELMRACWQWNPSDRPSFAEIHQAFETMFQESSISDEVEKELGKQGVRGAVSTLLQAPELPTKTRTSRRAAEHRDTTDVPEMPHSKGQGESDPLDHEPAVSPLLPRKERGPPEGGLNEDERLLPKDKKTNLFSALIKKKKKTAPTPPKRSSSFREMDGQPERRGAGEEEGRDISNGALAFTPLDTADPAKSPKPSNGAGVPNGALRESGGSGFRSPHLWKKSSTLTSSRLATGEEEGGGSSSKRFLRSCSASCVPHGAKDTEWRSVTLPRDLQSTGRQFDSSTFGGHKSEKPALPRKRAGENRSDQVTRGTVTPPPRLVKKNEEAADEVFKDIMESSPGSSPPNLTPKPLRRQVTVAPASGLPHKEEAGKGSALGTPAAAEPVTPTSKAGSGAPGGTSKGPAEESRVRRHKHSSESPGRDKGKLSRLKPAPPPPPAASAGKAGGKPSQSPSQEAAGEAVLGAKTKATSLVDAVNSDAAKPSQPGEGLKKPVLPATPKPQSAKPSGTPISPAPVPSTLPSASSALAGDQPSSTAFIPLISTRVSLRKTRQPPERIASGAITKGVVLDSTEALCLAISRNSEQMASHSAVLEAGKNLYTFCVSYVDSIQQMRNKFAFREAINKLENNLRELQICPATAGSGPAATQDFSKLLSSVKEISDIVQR
Sequence of ABL1-non-Phos. (P00519 whole entry): as above

COc1cc(N(C)c2ccnc3ccc(C(F)(F)F)cc23)cc(OC)c1OC [compound 21, negative control (21)]
> 10 µM: all assays above
